Experiments:
[1] = target: L-type voltage-dependent Ca2+ channel (Homo sapiens, UniProt O60840+Q01668+Q13698+Q13936); experiment: Inhibition of L-type voltage-dependent Ca2+ channel at 1 uM
[2] = Potentiation of forskolin-induced CFTR deltaF508 mutant expressed in FRT cells co-expressing halide-sensitive YFP-H148Q/I152L by fluorescence quenching assay; format: cell-based, Homo sapiens

| Compound | inhibition at 1 µM [1] [%] | pEC50 for potentiation of CFTR deltaF508 (activation potency) [2] |
| --- | --- | --- |
| COCCOC(=O)C1=C(C)N=C(C)/C(=C(/O)OCCOC)C1/C=C/c1ccccc1OC (centres undefined) | 10.6 | 6.1 |
| COC(=O)C1=C(C)N=C(C)/C(=C(/O)OC)C1/C=C/c1ccccc1 (centres undefined) | 18.8 | 5.48 |
| CCOC(=O)C1=C(C)NC(C)=C(C(=O)OC)C1c1cc(Cl)cc(Cl)c1OC (centres undefined) | 100 | 6.62 |
| COC(=O)C1=C(C)NC(C)=C(C(=O)OC)C1c1ccc(Cl)c(Cl)c1 | 100 | 5.77 |
| CCc1ccc(C2C(C(=O)OC)=C(C)NC(C)=C2C(=O)OC)cc1 | 37.4 | 6.14 |
| CCOc1ccc(C2C(C(=O)OC)=C(C)NC(C)=C2C(=O)OC)cc1OC | 22.6 | 5.62 |
| COC(=O)C1=C(C)N(C)C(C)=C(C(=O)OC)C1c1ccccc1Cl | 50.6 | 5.44 |
| COC(=O)C1=C(C)N(C)C(C)=C(C(=O)OC)C1c1ccc(Cl)c(Cl)c1 | 45.6 | 4.89 |
| CC1=C(C(=O)OC(C)C)C(c2ccc(F)cc2)C(C(=O)OC(C)C)=C(C)N1 | 96.8 | 6.52 |
| COC(=O)C1=C(C)NC(C)=C(C(=O)OC)C1c1ccc(C(C)(C)C)cc1 | 20.9 | 5.52 |
| COCCOC(=O)C1=C(C)NC(C)=C(C(=O)OCCOC)C1c1ccc(-c2cccc(Cl)c2Cl)o1 | 44.9 | 5.7 |
| CCN(CC)c1ccc(C2C(C(=O)OC)=C(C)NC(C)=C2C(=O)OC)cc1 | 7.1 | 5.92 |
| C=CCOC(=O)C1=C(C)NC(SC)=C(C#N)C1c1ccc(Cl)cc1 (centres undefined) | 36.7 | 6.26 |
| CCOC(=O)C1=C(C)NC(SC)=C(C#N)C1c1ccccc1 (centres undefined) | 23.4 | 5.3 |
| CC1=C(C(=O)OC(C)C)C(c2ccc(C)cc2)C(C(=O)OC(C)C)=C(C)N1 | 47 | 6.27 |
| COC(=O)C1=C(C)NC(C)=C(C(=O)OC)C1c1ccc(-c2ccc(Cl)c(Cl)c2)o1 | 8.3 | 5.51 |
| COC(=O)C1=C(C)NC(C)=C(C(=O)OC)C1c1ccc(I)cc1 | 12.3 | 6.34 |
| COC(=O)C1=C(C)NC(C)=C(C(=O)OC)C1c1ccc(-c2cccc(Cl)c2Cl)o1 | 10.3 | 5.43 |
| COC(=O)C1=C(C)N=C(C)/C(=C(/O)OC)C1c1c(F)cccc1Cl (centres undefined) | 100 | 6.8 |
| COC(=O)C1=CNC=C(C(=O)OC)C1c1ccc(Cl)c(Cl)c1 | 17.1 | 5.7 |

Next, values leading:

| inhibition at 1 µM [1] [%] | pEC50 for potentiation of CFTR deltaF508 (activation potency) [2] | Compound |
| --- | --- | --- |
| 47.4 | 5.71 | CCOC(=O)C1=C(C)NC(C)=C(C(=O)OCC)C1c1ccc([N+](=O)[O-])cc1 |
| 18 | 6.49 | C=CCOC(=O)C1=C(C)NC(C)=C(C(=O)OCC=C)C1/C=C/c1ccccc1OC |
| 48.2 | 6.52 | C=CCOC(=O)C1=C(C)NC(C)=C(C(=O)OCC=C)C1c1cccc(Oc2ccccc2)c1 |
| 87.2 | 6.21 | C=CCOC(=O)C1=C(C)NC(C)=C(C(=O)OCC=C)C1c1ccc(Cl)c(Cl)c1 |
| 30.4 | 6.1 | CCOC(=O)C1=C(C)NC(C)=C(C(=O)OCC)C1c1ccc(N(C)C)cc1 |
| 100 | 6.21 | CCOC(=O)C1=C(C)NC(C)=C(C(=O)OCC)C1c1ccc(OC)c(OC)c1 |
| 58.7 | 6.29 | CCOC(=O)C1=C(C)NC(C)=C(C(=O)OCC)C1c1ccc(OCC)cc1 |
| 100 | 6.46 | COC(=O)C1=C(C)NC(C)=C(C(=O)OC)C1c1cccc(Br)c1 |
| 100 | 6.59 | CCOC(=O)C1=C(C)NC(C)=C(C(=O)OCC)C1c1ccccc1Cl |
| 22.8 | 5.35 | CCOC(=O)C1=C(C)NC(C)=C(C(=O)OCC)C1c1ccc(O)c(OCC)c1 |
| 44.9 | 5.28 | COc1cc(C2C(C(=O)OCc3ccccc3)=C(C)NC(C)=C2C(=O)OCc2ccccc2)ccc1O |
| 30.8 | 6.22 | CCOC(=O)C1=C(C)NC(C)=C(C(=O)OCC)C1c1ccc(C(C)C)cc1 |
| 100 | 6.92 | C=CCOC(=O)C1=C(C)NC(C)=C(C(=O)OCC=C)C1c1cccc([N+](=O)[O-])c1 |
| 28.7 | 5.55 | C=CCOC(=O)C1=C(C)NC(C)=C(C(=O)OCC=C)C1c1ccc(OC)c(OC)c1 |
| 63.6 | 6.46 | C=CCOC(=O)C1=C(C)NC(C)=C(C(=O)OCC=C)C1c1ccc(O)c(OCC)c1 |
| 64 | 6.6 | C=CCOC(=O)C1=C(C)NC(C)=C(C(=O)OCC=C)C1c1ccc(C(C)C)cc1 |
| 55.7 | 6.3 | C=CCOC(=O)C1=C(C)NC(C)=C(C(=O)OCC=C)C1c1ccc(C)cc1 |
| 100 | 6.44 | CCOC(=O)C1=C(C)NC(C)=C(C(=O)OCC)C1c1c(F)cccc1Cl |
| 81 | 6.4 | C=CCOC(=O)C1=C(C)NC(C)=C(C(=O)OCC=C)C1c1ccc(Cl)cc1Cl |
| 70.5 | 5.77 | COC(=O)C1=C(C)NC(C)=C(C(=O)OC)C1c1ccccc1 |
| 9.6 | 5.52 | CCCCOc1ccc(C2C(C(=O)OCC)=C(C)NC(C)=C2C(=O)OCC)cc1 |
| 91.9 | 6.21 | COC(=O)C1=C(C)NC(C)=C(C(=O)OC)C1c1cccc(F)c1 |
| 23.9 | 5.82 | C=CCOC(=O)C1=C(C)NC(C)=C(C(=O)OCC=C)C1c1ccc(N(C)C)cc1 |
| 7.8 | 5.52 | C=CCOC(=O)C1=C(C)NC(C)=C(C(=O)OCC=C)C1c1ccc(C(=O)OC)cc1 |
| 100 | 6.74 | C=CCOC(=O)C1=C(C)NC(C)=C(C(=O)OCC=C)C1c1ccccc1Cl |
| 100 | 6.82 | C=CCOC(=O)C1=C(C)NC(C)=C(C(=O)OCC=C)C1c1cccc(Cl)c1 |
| 38.2 | 5.77 | CCOC(=O)C1=C(C)NC(C)=C(C(=O)OCC)C1c1ccc2c(c1)OCO2 |

Reference: ChEMBL document CHEMBL2062363, “Ligand-based design, in silico ADME-Tox filtering, synthesis and biological evaluation to discover new soluble 1,4-DHP-based CFTR activators” (Eur J Med Chem, 2012)
